According to ChEMBL document CHEMBL3272136, “A new series of cardioselective adrenergic beta-receptor blocking compounds. 1-(2-Acyl-4-acylaminophenoxy)-3-isopropylaminopropan-2-ols” (1976):

What was measured:
[1] = test system: Felis catus; test: In vivo beta-1 adrenergic receptor blocking activity in iv dosed cat assessed as half dose required for desensitizing isoproterenol-induced tachycardia after 3.5 mins; type: functional
[2] = test system: Canis familiaris; test: Antiarrhythmic activity in iv dosed dog assessed as dose required for reversal of ouabain-induced cardiac arrhythmia; type: functional, Canis lupus familiaris, Heart
[3] = test system: Felis catus; test: Ratio of in vivo beta-2 adrenergic receptor blocking activity in iv dosed cat assessed as half dose required for desensitizing isoproterenol-induced diastolic hypotensive response to in vivo beta-1 adrenergic receptor blocking activity in iv dosed cat assessed as half dose required for desensitizing isoproterenol-induced tachycardia; type: functional
[4] = test system: Felis catus; test: In vivo beta-2 adrenergic receptor blocking activity in iv dosed cat assessed as half dose required for desensitizing isoproterenol-induced diastolic hypotensive response after 3.5 mins; type: functional

## CC(=O)c1cc(NC(=O)C(C)C)ccc1OCC(O)CNC(C)C (centres undefined)
[1]
  Activity: 0.1 mg/kg
[2]
  Activity: 17.2 mg/kg
[3]
  Ratio: 18.5
[4]
  Activity: 1.85 mg/kg

## CC(=O)Nc1ccc(OCC(O)CNC(C)C)c(C(C)=O)c1 (centres undefined) [DIACETOLOL]
[1]
  Activity: 0.089 mg/kg
[2]
  Activity: >15 mg/kg
[3]
  Ratio: 3.59
[4]
  Activity: 0.32 mg/kg

## CCCCCCC(=O)Nc1ccc(OCC(O)CNC(C)C)c(C(C)=O)c1 (centres undefined)
[1]
  Activity: 0.04 mg/kg
[2]
  Activity: 2.7 mg/kg
[3]
  Ratio: 12.5
[4]
  Activity: 0.5 mg/kg

## CCCCCCCC(=O)Nc1ccc(OCC(O)CNC(C)C)c(C(C)=O)c1 (racemic)
[1]
  Activity: 0.05 mg/kg
[2]
  Activity: 3.9 mg/kg
[3]
  Ratio: 13.84
[4]
  Activity: 0.692 mg/kg

## CC(=O)c1cc(NC(=O)Cc2ccccc2)ccc1OCC(O)CNC(C)C (centres undefined)
[1]
  Activity: 0.03 mg/kg
[2]
  Activity: 12.6 mg/kg
[3]
  Ratio: 5.33
[4]
  Activity: 0.16 mg/kg

## CCCC(=O)Nc1ccc(OCC(O)CNC(C)C)c(C(=O)CCC)c1 (centres undefined)
[1]
  Activity: 0.23 mg/kg
[2]
  Activity: 3.5 mg/kg
[3]
  Ratio: 20.78
[4]
  Activity: 4.78 mg/kg

## CCCCCC(=O)Nc1ccc(OCC(O)CNC(C)C)c(C(C)=O)c1 (centres undefined)
[1]
  Activity: 0.029 mg/kg
[2]
  Activity: 3.2 mg/kg
[3]
  Ratio: 29.31
[4]
  Activity: 0.85 mg/kg

## CCCCC(=O)Nc1ccc(OCC(O)CNC(C)C)c(C(C)=O)c1 (centres undefined)
[1]
  Activity: 0.033 mg/kg
[2]
  Activity: 4.8 mg/kg
[3]
  Ratio: 27
[4]
  Activity: 0.89 mg/kg

## CCCC(=O)Nc1ccc(OCC(O)CNC(C)C)c(C(=O)CC)c1 (centres undefined)
[1]
  Activity: 0.079 mg/kg
[2]
  Activity: 6.1 mg/kg
[3]
  Ratio: 14.18
[4]
  Activity: 1.12 mg/kg

## CC(=O)c1cc(NC(=O)c2ccccc2)ccc1OCC(O)CNC(C)C (centres undefined)
[1]
  Activity: 0.54 mg/kg
[2]
  Activity: 5.8 mg/kg
[4]
  Activity: 1 mg/kg

## CCCC(=O)Nc1ccc(OCC(O)CNC(C)C)c(C(C)=O)c1 (centres undefined) [ACEBUTOLOL]
[1]
  Activity: 0.13 mg/kg
[2]
  Activity: 8.1 mg/kg
[3]
  Ratio: 20
[4]
  Activity: 2.6 mg/kg

## CCC(=O)Nc1ccc(OCC(O)CNC(C)C)c(C(=O)CC)c1 (centres undefined)
[1]
  Activity: 0.026 mg/kg
[2]
  Activity: 6.4 mg/kg
[3]
  Ratio: 15.77
[4]
  Activity: 0.41 mg/kg

## CC(=O)c1cc(NC(=O)CC(C)C)ccc1OCC(O)CNC(C)C (centres undefined)
[1]
  Activity: 0.11 mg/kg
[2]
  Activity: 3.8 mg/kg
[3]
  Ratio: 19.09
[4]
  Activity: 2.1 mg/kg

## CCC(=O)Nc1ccc(OCC(O)CNC(C)C)c(C(C)=O)c1 (racemic)
[1]
  Activity: 0.063 mg/kg
[2]
  Activity: 22.5 mg/kg
[3]
  Ratio: 8.25
[4]
  Activity: 0.52 mg/kg

## CC(=O)Nc1ccc(OCC(O)CNC(C)C)cc1 (centres undefined) [PRACTOLOL]
[1]
  Activity: 0.158 mg/kg
[2]
  Activity: >35 mg/kg
[3]
  Ratio: 10.13
[4]
  Activity: 1.6 mg/kg
